Source: patent US11180461B2, “Triazoles as Kv3 inhibitors” (AUTIFONY THERAPEUTICS LIMITED, priority 2012, dated 2021)

Experiments:
[1] = target: T1, human Kv3.2 channels (hKv3.2) (Homo sapiens, UniProt Q96PR1); assay: hKv3.2 recombinant cell assay, IonWorks Quattro planar array electrophysiology; format: cell-based; conditions: activity quantified by EC50
T1 construct: expressed in transfected cells
T1 sequence (Q96PR1 1-638): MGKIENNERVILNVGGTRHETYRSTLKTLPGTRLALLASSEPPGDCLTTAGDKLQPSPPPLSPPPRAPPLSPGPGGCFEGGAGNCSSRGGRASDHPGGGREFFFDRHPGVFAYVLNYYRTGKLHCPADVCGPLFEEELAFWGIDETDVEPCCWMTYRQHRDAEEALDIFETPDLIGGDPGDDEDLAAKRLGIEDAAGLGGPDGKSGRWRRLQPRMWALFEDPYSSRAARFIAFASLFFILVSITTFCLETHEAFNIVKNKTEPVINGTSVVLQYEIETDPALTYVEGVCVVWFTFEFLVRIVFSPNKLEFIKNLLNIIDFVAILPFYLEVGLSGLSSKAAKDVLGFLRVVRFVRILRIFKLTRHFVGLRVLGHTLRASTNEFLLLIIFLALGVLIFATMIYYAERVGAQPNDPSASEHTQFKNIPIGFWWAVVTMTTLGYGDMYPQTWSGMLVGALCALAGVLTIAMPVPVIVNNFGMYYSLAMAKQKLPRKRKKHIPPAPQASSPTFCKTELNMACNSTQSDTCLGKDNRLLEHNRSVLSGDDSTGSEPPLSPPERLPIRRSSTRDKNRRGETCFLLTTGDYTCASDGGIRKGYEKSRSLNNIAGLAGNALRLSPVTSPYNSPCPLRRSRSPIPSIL
From the text: The ability of the compounds of the invention to modulate the voltage-gated potassium channel subtypes Kv3.2/3.1 may be determined using the following assay. The assay may also be used to determine the ability of compounds of the invention to modulate the voltage-gated potassium channel Kv3.3. Analogous methods may be used to investigate the ability of the compounds of the invention to modulate other channel subtypes.
To assess compound effects on human Kv3.2 channels (hKv3.2), a stable cell line expressing human Kv3.2 channels (hKv3.2) was created by transfecting Chinese Hamster Ovary (CHO)—K1 cells with a pCIH5-hKv3.2 vector. Cells were cultured in DMEM/F12 medium supplemented by 10% Foetal Bovine Serum, 1× non-essential amino acids (Invitrogen) and 500 ug/ml of Hygromycin-B (Invitrogen). Cells were grown and maintained at 37° C. in a humidified environment containing 5% CO2 in air. […]
Experiments were conducted at room temperature using IonWorks Quattro™ planar array electrophysiology technology (Molecular Devices Corp.) with PatchPlate™ PPC. […] Planar electrode hole resistances (Rp) were determined by applying a 10 mV voltage step across each well. […] Test pulses protocol may be performed in the absence (pre-read) and presence (post-read) of the test compound. Pre- and post-reads may be separated by the compound addition followed by a 3 minute incubation. […]

[2] = Determination of in vivo pharmacokinetic parameters (blood and brain) in rats, with and without Elacridar; conditions: rat, oral 1 mg/kg
Description: Adult male rats (Charles River, Italy) were dosed with test compound orally at 1 mg/kg (5 ml/kg, in 5% v/v DMSO, 0.5% w/v HPMC in water) and intravenously at 0.5 mg/kg (2 ml/kg, in 5% v/v DMSO 40% w/v PEG400 in saline). After oral administration, blood samples were collected under deep Isofluorane anesthesia from the portal vein and heart of each rat (1 rat per time point). After intravenous administration, serial blood samples were collected from the lateral tail vein of each rat. A further group of rats (n=1 per test compound) received a single intravenous administration of the PgP transport inhibitor, Elacridar (3 mg/kg) shortly before the oral administration of the test compound at 1 mg/kg, as above. Blood and brain samples were collected at a single timepoint of 0.5 h after dose administration for these animals. In all cases, blood samples were collected into potassium EDTA tubes.
Blood and brain samples were assayed for test compound concentration using a method based on protein precipitation with acetonitrile followed by HPLC/MS-MS analysis with an optimized analytical method.
The concentrations of test compound in blood (expressed as ng/ml) and brain (expressed as ng/g) at the different time points following either oral or intravenous dosing were analysed using a non-compartmental pharmacokinetic model using WinNonLin Professional version 4.1. The following parameters were drived:
Intravenous dosing: Maximum concentration over time (Cmax), integrated concentration over time (AUC), clearance (Clb), volume of distribution (Vss) and half-life (t1/2).
Oral dosing: Cmax, time of maximum concentration (Tmax), AUC, bioavailability (F %), fraction absorbed (Fa %), blood to brain ratio (AUC BB), and Fold-change in AUC BB in the presence of Elacridar.

AUC BB relative to Reference Example 87 and Reference Example 88 of WO2011069951A1 ([2]; AUC BB from blood and brain): at least two fold | change in AUC BB in the presence of Elacridar ([2]; Elacridar 3 mg/kg i.v., blood and brain at 0.5 h, p-glycoprotein interaction): limited change
SMILES: Cc1n[nH]c(=O)n1-c1ccc(Oc2cccc3c2C2(CC2)CO3)nc1 [Example 15, 5-methyl-4-[6-(spiro[1-benzofuran-3,1′-cyclopropan]-4-yloxy)pyridin-3-yl]-2,4-dihydro-3H-1,2,4-triazol-3-one]
selectivity for modulation of Kv3.2 channels over Kv3.1 channels [1]: demonstrates selectivity for Kv3.2 channels
